The numbers were not newly measured in US20140303227A1, “TRANSMUCOSAL HORMONE DELIVERY SYSTEM” (Pharmaceutical Productions Inc., priority 2013, published 2014), which cites them from elsewhere.

Structures are written as SMILES.

For the data set the following is noted: pH 6.8.

As for `CN1CCCC1c1cccnc1` (stereo not shown) [nicotine], the “nicotine in the free base form” value is “about 10%”.
